According to US20260022143A1, “Cyclic Peptide Inhibitors of IL-23” (JANSSEN PHARMACEUTICA NV, priority 2022, published 2026):
Starred links: 1 amine or outer side, 2 acyl side, 3 side chain; linkers in the order of their positions; H or OH if unused. Positions of bridges follow the written chain, without caps; N, C: chain ends. Non-standard residues stand in square brackets, D forms with d. Residues, ends and D or L forms follow the SMILES beside them. *: point of attachment. Trp(7-(3-AcNH-Ph)) = CC(=O)Nc1cccc(-c2cccc3c(C[C@H](N)C(=O)O)c[nH]c23)c1; X33 = C[N+](C)(C)CCCCc1cn(-c2ccc(C[C@H](N[*:1])C(=O)[*:2])cc2)nn1; X16 = C[N+](C)(C)Cc1cn(-c2ccc(C[C@H](N[*:1])C(=O)[*:2])cc2)nn1; Me3N+(CH2)2O(CH2)2O(CH2)2CO = C[N+](C)(C)CCOCCOCCC(=O)*; CH2CH2OCH2CH2OCH2CH2NMe3+ = C[N+](C)(C)CCOCCOCC*; Phe(4-N3) = [N-]=[N+]=Nc1ccc(C[C@H](N)C(=O)O)cc1; Trp(7-Me) = Cc1cccc2c(C[C@H](N)C(=O)O)c[nH]c12; X15 = CC(=O)N(C)C[C@H](N[*:1])C(=O)[*:2]; 2Nal = N[C@@H](Cc1ccc2ccccc2c1)C(=O)O; AEF = NCCOc1ccc(C[C@H](N)C(=O)O)cc1; X22 = CN1CC[N+](C)(CCOCCOCC*)CC1; 3Pal = N[C@@H](Cc1cccnc1)C(=O)O; Lys(Me) = CNCCCC[C@H](N)C(=O)O; X7 = COCCOCCOCCOCCOCCOCCC(=O)*; Pen = CC(C)(S)[C@H](N)C(=O)O; Thp = NC1(C(=O)O)CCOCC1; X17 = C[N+]1(CC*)CCOCC1; X3 = C[N+](C)(C)CCCCC*; Sar = CNCC(=O)O

Legend:
IL-23R = molecular target: T1, IL-23R (Homo sapiens, UniProt Q5VWK5); experiment: IL23R Reporter Assay; type: cell-based; conditions: HEK293 cells containing IL-23R, IL-12RP1 and STAT-inducible firefly luciferase reporter; 10 ng/mL IL-23 (EC90); 5 h at 37° C.; read-out: IL23R Reporter Assay
T1 construct: host or cells: HEK293
T1 sequence (Q5VWK5 24-629): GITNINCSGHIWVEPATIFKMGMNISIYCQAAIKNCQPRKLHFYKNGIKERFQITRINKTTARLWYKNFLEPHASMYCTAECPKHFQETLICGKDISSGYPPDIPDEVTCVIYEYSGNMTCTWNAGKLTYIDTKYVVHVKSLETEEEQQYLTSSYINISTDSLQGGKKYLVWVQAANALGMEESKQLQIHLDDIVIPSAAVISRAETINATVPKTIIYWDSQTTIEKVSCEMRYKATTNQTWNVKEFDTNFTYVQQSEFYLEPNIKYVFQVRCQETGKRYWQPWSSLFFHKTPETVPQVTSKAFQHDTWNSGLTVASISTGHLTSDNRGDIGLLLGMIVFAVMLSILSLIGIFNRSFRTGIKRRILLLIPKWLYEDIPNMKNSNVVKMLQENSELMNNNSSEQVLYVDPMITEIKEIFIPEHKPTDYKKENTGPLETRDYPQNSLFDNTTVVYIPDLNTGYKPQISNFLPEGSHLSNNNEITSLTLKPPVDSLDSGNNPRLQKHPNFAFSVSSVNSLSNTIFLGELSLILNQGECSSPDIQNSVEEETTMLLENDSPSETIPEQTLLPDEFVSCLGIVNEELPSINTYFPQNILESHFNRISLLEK

[1] = Exposed Polar Surface Area (EPSA); type: physicochemical; conditions: SFC on Chirex 3014 column; sample 1 mM DMSO stock; read-out: EPSA
In short: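 SFC retention on a Chirex 3014 (S)-valine/(R)-1-(α-naphthyl)ethylamine column, 35 °C, CO2 with MeOH (20 mM ammonium formate) gradient 5–60% at 20%/min, 14 MPa outlet. Retention times converted to EPSA (Å^2) via linear calibration with 8 standards; samples from 1 mM DMSO stock, run in duplicate.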

CC(=O)NCCCC[C@@H]1NC(=O)[C@H](Cc2c[nH]c3c(C)cccc23)NC(=O)[C@H]([C@@H](C)O)NC(=O)[C@H](CC(N)=O)NC(=O)[C@@H](NC(=O)CCOCCOCC[N+](C)(C)C)C(C)(C)SSC(C)(C)[C@@H](C(=O)N[C@@H](Cc2ccc(N=[N+]=[N-])cc2)C(=O)N[C@@H](Cc2ccc3ccccc3c2)C(=O)NC2(C(=O)N[C@@H](CCCCNC(C)=O)C(=O)N[C@@H](CC(N)=O)C(=O)N[C@@H](Cc3cccnc3)C(=O)N(C)CC(N)=O)CCOCC2)NC1=O [compound 418, cPEG3aCO-Pen(3)-N-T-7MeW-K(Ac)-Pen(3)-F(4N3)-2Nal-THP-K(Ac)-N-3Pya-Sar-CONH2] ({Me3N+(CH2)2O(CH2)2O(CH2)2CO}-[Pen]NT[Trp(7-Me)]K(Ac)[Pen][Phe(4-N3)][2Nal][Thp]K(Ac)N[3Pal][Sar]-NH2; disulfide 1-6)
IC50 (IL-23R): 1.2 nM
EPSA [1]: 166 A^2

CC(=O)N(C)CCCC[C@@H]1NC(=O)[C@H](Cc2c[nH]c3c(C)cccc23)NC(=O)[C@H]([C@@H](C)O)NC(=O)[C@H](CC(=O)N(C)C)NC(=O)[C@@H](NC(=O)CCOCCOCC[N+](C)(C)C)C(C)(C)SSC(C)(C)[C@@H](C(=O)N[C@@H](Cc2ccc(OCCOCCOCC[N+](C)(C)C)cc2)C(=O)N[C@@H](Cc2ccc3ccccc3c2)C(=O)NC2(C(=O)N[C@@H](CN(C)C(C)=O)C(=O)N[C@@H](CC(N)=O)C(=O)N[C@@H](Cc3cccnc3)C(=O)N(C)CC(=O)N(C)C)CCOCC2)NC1=O [compound 419, cPEG3aCO-Pen(3)-N(N(Me)2)-T-7MeW-K(NMeAc)-Pen(3)-APEG3F-2Nal-THP-Dap(NMeAc)-N-3Pya-Sar-CON(Me)2] ({Me3N+(CH2)2O(CH2)2O(CH2)2CO}-[Pen]D(NMe2)T[Trp(7-Me)][Lys(Me)](Ac)[Pen]Y(CH2CH2OCH2CH2OCH2CH2NMe3+)[2Nal][Thp][X15]N[3Pal][Sar]-NMe2; disulfide 1-6)
IC50 (IL-23R): 3 nM
EPSA [1]: 156 A^2

CC(=O)Nc1cccc(-c2cccc3c(C[C@@H]4NC(=O)[C@H]([C@@H](C)O)NC(=O)[C@H](CC(=O)N(C)C)NC(=O)[C@@H](NC(=O)CCOCCOCC[N+](C)(C)C)C(C)(C)SSC(C)(C)[C@@H](C(=O)N[C@@H](Cc5ccc(OCC[N+]6(C)CCOCC6)cc5)C(=O)N[C@@H](Cc5ccc6ccccc6c5)C(=O)NC5(C(=O)N[C@@H](CCCCN(C)C(C)=O)C(=O)N[C@@H](CC(N)=O)C(=O)N[C@@H](Cc6cccnc6)C(=O)N(C)CC(=O)N(C)C)CCOCC5)NC(=O)[C@H](CCCCN(C)C(C)=O)NC4=O)c[nH]c23)c1 [compound 421, cPEG3aCO-Pen(3)-N(N(me)2)-T-7(3NAcPh)W-K(NMeac)-Pen(3)-MMoEF-2Nal-THP-K(NMeAc)-N-3Pya-Sar-CON(Me)2] ({Me3N+(CH2)2O(CH2)2O(CH2)2CO}-[Pen]D(NMe2)T[Trp(7-(3-AcNH-Ph))][Lys(Me)](Ac)[Pen]Y(X17)[2Nal][Thp][Lys(Me)](Ac)N[3Pal][Sar]-NMe2; disulfide 1-6 (inferred))
IC50 (IL-23R): 1.2 nM
EPSA [1]: 168 A^2

COCCOCCOCCOCCOCCOCCC(=O)N[C@H](CCCNC(=N)N)C(=O)N[C@@H]1C(=O)N[C@@H](CC(N)=O)C(=O)N[C@@H]([C@@H](C)O)C(=O)N[C@@H](Cc2c[nH]c3c(-c4cccc(NC(C)=O)c4)cccc23)C(=O)N[C@@H](CCCCNC(C)=O)C(=O)N[C@H](C(=O)N[C@@H](Cc2ccc(OCCN)cc2)C(=O)N[C@@H](Cc2ccc3ccccc3c2)C(=O)NC2(C(=O)N[C@@H](CCC(=O)O)C(=O)N[C@@H](CC(N)=O)C(=O)N[C@@H](Cc3cccnc3)C(=O)N(C)CC(N)=O)CCOCC2)C(C)(C)SSC1(C)C [compound 422] (X7-[dR][Pen]NT[Trp(7-(3-AcNH-Ph))]K(Ac)[Pen][AEF][2Nal][Thp]EN[3Pal][Sar]-NH2; disulfide 2-7 (inferred))
IC50 (IL-23R): 1.8 nM
EPSA [1]: 192 A^2

CC(=O)NCCCC[C@@H]1NC(=O)[C@H](Cc2c[nH]c3c(C)cccc23)NC(=O)[C@H]([C@@H](C)O)NC(=O)[C@H](CC(N)=O)NC(=O)[C@@H](NC(=O)CCOCCOCC[N+](C)(C)C)C(C)(C)SSC(C)(C)[C@@H](C(=O)N[C@@H](Cc2ccc(-n3cc(CCCC[N+](C)(C)C)nn3)cc2)C(=O)N[C@@H](Cc2ccc3ccccc3c2)C(=O)NC2(C(=O)N[C@@H](CCCCNC(C)=O)C(=O)N[C@@H](CC(N)=O)C(=O)N[C@@H](Cc3cccnc3)C(=O)N(C)CC(N)=O)CCOCC2)NC1=O [compound 424, cPEG3aCO-Pen(3)-N-T-7MeW-K(Ac)-Pen(3)-F(4TzlTMA4)-2Nal-THP-K(Ac)-N-3Pya-Sar-CONH2] ({Me3N+(CH2)2O(CH2)2O(CH2)2CO}-[Pen]NT[Trp(7-Me)]K(Ac)[Pen][X33][2Nal][Thp]K(Ac)N[3Pal][Sar]-NH2; disulfide 1-6)
IC50 (IL-23R): 2.6 nM
EPSA [1]: 165 A^2

CC(=O)NCCCC[C@@H]1NC(=O)[C@H](Cc2c[nH]c3c(C)cccc23)NC(=O)[C@H]([C@@H](C)O)NC(=O)[C@H](CC(N)=O)NC(=O)[C@@H](NC(C)=O)C(C)(C)SSC(C)(C)[C@@H](C(=O)N[C@@H](Cc2ccc(-n3cc(C[N+](C)(C)C)nn3)cc2)C(=O)N[C@@H](Cc2ccc3ccccc3c2)C(=O)NC2(C(=O)N[C@@H](CCCCNC(C)=O)C(=O)N[C@@H](CC(N)=O)C(=O)N[C@@H](Cc3cccnc3)C(=O)N(C)CC(N)=O)CCOCC2)NC1=O [compound 426] (Ac-[Pen]NT[Trp(7-Me)]K(Ac)[Pen][X16][2Nal][Thp]K(Ac)N[3Pal][Sar]-NH2; disulfide 1-6 (inferred))
IC50 (IL-23R): 1.6 nM
EPSA [1]: 163 A^2

CC(=O)NCCCC[C@@H]1NC(=O)[C@H](Cc2c[nH]c3c(C)cccc23)NC(=O)[C@H]([C@@H](C)O)NC(=O)[C@H](CC(N)=O)NC(=O)[C@@H](NC(=O)CCOCCOCC[N+](C)(C)C)C(C)(C)SSC(C)(C)[C@@H](C(=O)N[C@@H](Cc2ccc(OCCCCC[N+](C)(C)C)cc2)C(=O)N[C@@H](Cc2ccc3ccccc3c2)C(=O)NC2(C(=O)N[C@@H](CCCCNC(C)=O)C(=O)N[C@@H](CC(N)=O)C(=O)N[C@@H](Cc3cccnc3)C(=O)N(C)CC(N)=O)CCOCC2)NC1=O [compound 428, cPEG3aCO-Pen(3)-N-T-7MeW-K(Ac)-Pen(3)-TMAPF-2Nal-THP-K(Ac)-N-3Pya-Sar-CONH2] ({Me3N+(CH2)2O(CH2)2O(CH2)2CO}-[Pen]NT[Trp(7-Me)]K(Ac)[Pen]Y(X3)[2Nal][Thp]K(Ac)N[3Pal][Sar]-NH2; disulfide 1-6)
IC50 (IL-23R): 3.5 nM
EPSA [1]: 161 A^2

CC(=O)NCCCC[C@@H]1NC(=O)[C@H](Cc2c[nH]c3c(C)cccc23)NC(=O)[C@H]([C@@H](C)O)NC(=O)[C@H](CC(N)=O)NC(=O)[C@@H](NC(C)=O)C(C)(C)SSC(C)(C)[C@@H](C(=O)N[C@@H](Cc2ccc(OCCCCC[N+](C)(C)C)cc2)C(=O)N[C@@H](Cc2ccc3ccccc3c2)C(=O)NC2(C(=O)N[C@@H](CCC(=O)O)C(=O)N[C@@H](CC(N)=O)C(=O)N[C@@H](Cc3cccnc3)C(=O)N(C)CC(N)=O)CCOCC2)NC1=O [compound 430, MeCO-Pen(3)-N-T-7MeW-K(Ac)-Pen(3)-TMAPF-2Nal-THP-E-N-3Pya-Sar-CONH2] (Ac-[Pen]NT[Trp(7-Me)]K(Ac)[Pen]Y(X3)[2Nal][Thp]EN[3Pal][Sar]-NH2; disulfide 1-6 (inferred))
IC50 (IL-23R): 2.6 nM
EPSA [1]: 167 A^2

CC(=O)NCCCC[C@@H]1NC(=O)[C@H](Cc2c[nH]c3c(C)cccc23)NC(=O)[C@H]([C@@H](C)O)NC(=O)[C@H](CC(N)=O)NC(=O)[C@@H](NC(C)=O)C(C)(C)SSC(C)(C)[C@@H](C(=O)N[C@@H](Cc2ccc(OCCOCCOCC[N+]3(C)CCN(C)CC3)cc2)C(=O)N[C@@H](Cc2ccc3ccccc3c2)C(=O)NC2(C(=O)N[C@@H](CCCCNC(C)=O)C(=O)N[C@@H](CC(N)=O)C(=O)N[C@@H](Cc3cccnc3)C(=O)N(C)CC(N)=O)CCOCC2)NC1=O [compound 434] (Ac-[Pen]NT[Trp(7-Me)]K(Ac)[Pen]Y(X22)[2Nal][Thp]K(Ac)N[3Pal][Sar]-NH2; disulfide 1-6 (inferred))
IC50 (IL-23R): 3.1 nM
EPSA [1]: 156 A^2

CC(=O)NCCCC[C@@H]1NC(=O)[C@H](Cc2c[nH]c3c(C)cccc23)NC(=O)[C@H]([C@@H](C)O)NC(=O)[C@H](CC(N)=O)NC(=O)[C@@H](NC(=O)[C@@H](CCCNC(=N)N)NC(C)=O)C(C)(C)SSC(C)(C)[C@@H](C(=O)N[C@@H](Cc2ccc(OCC[N+]3(C)CCOCC3)cc2)C(=O)N[C@@H](Cc2ccc3ccccc3c2)C(=O)NC2(C(=O)N[C@@H](CCC(=O)O)C(=O)N[C@@H](CC(N)=O)C(=O)N[C@@H](Cc3cccnc3)C(=O)N(C)CC(N)=O)CCOCC2)NC1=O [compound 437] (Ac-[dR][Pen]NT[Trp(7-Me)]K(Ac)[Pen]Y(X17)[2Nal][Thp]EN[3Pal][Sar]-NH2; disulfide 2-7 (inferred))
IC50 (IL-23R): 1.2 nM
EPSA [1]: 186 A^2
